Experimental data: ChEMBL document CHEMBL1201862, “PubChem BioAssay data set” (2004)
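96-well plates; 48 h exposure; 5 concentrations. Endpoints by linear interpolation between flanking doses. Not reached: highest tested concentration assigned. The concentration for 50% growth inhibition is given as GI50.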 Calls of active or inactive are those of the source. Rule as the data show it: active = GI50 up to about 1.1 µM and inactive = higher.

Key:
Assay in all cases: inhibition of tumour cell growth, NCI panel, 48 h
[1] = test system: 786-0
[2] = test system: A498
[3] = test system: A549
[4] = test system: ACHN
[5] = test system: BT-549
[6] = test system: CAKI-1
[7] = test system: CCRF-CEM
[8] = test system: COLO 205
[9] = test system: DLD-1
[10] = test system: DMS-114
[11] = test system: DMS-273
[12] = test system: DU-145
[13] = test system: EKVX
[14] = test system: HCC 2998
[15] = test system: HCT-116
[16] = test system: HCT-15
[17] = test system: HL-60
[18] = test system: HOP-18
[19] = test system: HOP-62
[20] = test system: HOP-92
[21] = test system: HT-29
[22] = test system: Hs-578T
[23] = test system: IGROV-1
[24] = test system: K562
[25] = test system: KM-20L2
[26] = test system: KM12
[27] = test system: LOX IMVI
[28] = test system: LXFL 529
[29] = test system: M14
[30] = test system: M19-MEL
[31] = test system: MCF7
[32] = test system: MDA-MB-231
[33] = test system: MDA-MB-435
[34] = test system: MDA-N
[35] = test system: MOLT-4
[36] = test system: Malme-3M
[37] = test system: NCI-H226
[38] = test system: NCI-H23
[39] = test system: NCI-H460
[40] = test system: NCI-H522
[41] = test system: OVCAR-3
[42] = test system: OVCAR-4
[43] = test system: OVCAR-5
[44] = test system: OVCAR-8
[45] = test system: PC-3
[46] = test system: RPMI-8226
[47] = test system: RXF 393
[48] = test system: RXF 631
[49] = test system: SF-268
[50] = test system: SF-295
[51] = test system: SF-539
[52] = test system: SK-MEL-28
[53] = test system: SK-MEL-2
[54] = test system: SK-MEL-5
[55] = test system: SK-OV-3
[56] = test system: SN12C
[57] = test system: SNB-19
[58] = test system: SNB-75
[59] = test system: SNB-78
[60] = test system: SR
[61] = test system: SW-620
[62] = test system: TK-10
[63] = test system: U-251
[64] = test system: UACC-257
[65] = test system: UACC-62
[66] = test system: UO-31
[67] = test system: XF498

Structure (SMILES): Cc1cccc(C)c1NC(=O)C(C#N)C1=C(Cl)C(=O)c2ccccc2C1=O (configuration not stated)
- GI50 [1]: 22 µM (inactive)
- GI50 [2]: 14.8 µM (inactive)
- GI50 [3]: 19.7 µM (inactive)
- GI50 [4]: 15.2 µM (inactive)
- GI50 [5]: 14.6 µM (inactive)
- GI50 [6]: 18.5 µM (inactive)
- GI50 [7]: 1.62 µM (inactive)
- GI50 [8]: 6.35 µM (inactive)
- GI50 [9]: 8.15 µM (inactive)
- GI50 [10]: 15.3 µM (inactive)
- GI50 [11]: 30.5 µM (inactive)
- GI50 [12]: 14.5 µM (inactive)
- GI50 [13]: 21.4 µM (inactive)
- GI50 [14]: 17.8 µM (inactive)
- GI50 [15]: 15.4 µM (inactive)
- GI50 [16]: 19.1 µM
- GI50 [17]: 5.53 µM (inactive)
- GI50 [18]: 12.7 µM (inactive)
- GI50 [19]: 18 µM (inactive)
- GI50 [20]: 10.2 µM (inactive)
- GI50 [21]: 18.6 µM (inactive)
- GI50 [22]: 12.1 µM (inactive)
- GI50 [23]: 17 µM (inactive)
- GI50 [24]: 2.77 µM (inactive)
- GI50 [25]: 24.1 µM (inactive)
- GI50 [26]: 16.8 µM (inactive)
- GI50 [27]: 9.33 µM (inactive)
- GI50 [28]: 16.1 µM (inactive)
- GI50 [29]: 10.1 µM (inactive)
- GI50 [30]: 4.55 µM (inactive)
- GI50 [31]: 20 µM (inactive)
- GI50 [32]: 18.6 µM (inactive)
- GI50 [33]: 17.2 µM (inactive)
- GI50 [34]: 14.4 µM (inactive)
- GI50 [35]: 1.93 µM (inactive)
- GI50 [36]: 15.2 µM (inactive)
- GI50 [37]: 12.1 µM (inactive)
- GI50 [38]: 18.7 µM (inactive)
- GI50 [39]: 22.1 µM (inactive)
- GI50 [40]: 10.5 µM (inactive)
- GI50 [41]: 11.3 µM (inactive)
- GI50 [42]: 16 µM (inactive)
- GI50 [43]: 19.3 µM (inactive)
- GI50 [44]: 16.9 µM (inactive)
- GI50 [45]: 13.8 µM (inactive)
- GI50 [46]: 8.67 µM (inactive)
- GI50 [47]: > 32.8 µM (inactive)
- GI50 [48]: 15.4 µM (inactive)
- GI50 [49]: 15.5 µM (inactive)
- GI50 [50]: 16.3 µM (inactive)
- GI50 [51]: 21.4 µM (inactive)
- GI50 [52]: 20.2 µM (inactive)
- GI50 [53]: 14.4 µM (inactive)
- GI50 [54]: 13 µM (inactive)
- GI50 [55]: 20.9 µM (inactive)
- GI50 [56]: 17.4 µM (inactive)
- GI50 [57]: 16 µM (inactive)
- GI50 [58]: 15.7 µM (inactive)
- GI50 [59]: 23.4 µM (inactive)
- GI50 [60]: 2.31 µM (inactive)
- GI50 [61]: 11.9 µM (inactive)
- GI50 [62]: 19.5 µM (inactive)
- GI50 [63]: 18.1 µM (inactive)
- GI50 [64]: 13.9 µM (inactive)
- GI50 [65]: 16.1 µM (inactive)
- GI50 [66]: 13.6 µM (inactive)
- GI50 [67]: 15.5 µM (inactive)
